Where two headings read alike, the source gives them in different places.
Key:
[1] = biological target: T1, Amyloid-beta protein (1-42) (Homo sapiens, UniProt P05067); assay: Amyloid-beta (1-42) aggregation under anaesthetic gas: electrophoresis/western blot of monomer, LMW and HMW bands; type: biochemical; details: Xenon (50%) in air balanced with 5% CO2, 37° C., 24 hours
T1 construct: Amyloid-beta protein (1-42) hydrochloride salt (Bachem AG, Switzerland); purchased Bachem AG, Switzerland
Method: For detection of monomer formation Amyloid-beta protein (1-42) hydrochloride salt (Bachem AG, Switzerland) stored at −80° C. was removed and placed on ice. 1,1,1,3,3,3-hexafluoro-2-propanol (HFIP) (Sigma-Aldrich, Poole, UK) was placed on ice in the hood and allow to cool.110 HFIP was added to 0.5 mg amyloid- ? to produce a final concentration of 1 mM. The HFIP plus amyloid-beta solution was mixed on the vortex to ensure no solid remained on the vial edges. The HFIP plus amyloid-beta solution was incubated at room temperature for 60 minutes with the vial closed. The solution was then placed on ice for 10 minutes. The HFIP plus amyloid-beta solution was aliquoted into non-siliconized micro-centrifuge tubes amyloid-beta1-42). […]
When required peptide film containing tubes were removed from the −80° C. freezer and placed on ice. […] The protein was produced as above and was analysed immediately this was termed 0 hours. […]
The treated samples were centrifuged at 14,000 rpm at 4° C. for 10 minutes. […] The bands were detected with horseradish peroxidase-linked Ig anti-rabbit antibody (concentration 1:1000) (New England Biolab, Hitchin, UK) and visualised with the enhanced chemiluminesence system (ECL, Amersham Biosciences, Little Chalfont, UK). The monomer, LMW and HMW bands were located using a protein ladder to determine the molecular mass and were then quantified by densitometry (Adobe Photoshop). […]

[2] = cited from earlier work

T1 sequence (P05067 672-713 limits assumed): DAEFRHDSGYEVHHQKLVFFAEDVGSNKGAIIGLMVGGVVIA

For [Xe] [xenon], the “Amyloid β aggregation (electrophoresis stain, FIG. 2A)” value [1] is listed as “reduces Amyloid β aggregation”, the safety ([2]; 12 healthy volunteers, xenon in increasing concentrations 10%, 20%, 30%, 40% (Peterson-Felix et al.)) is listed as “Safety was reported” and the adverse events ([2]; six healthy male volunteers, 21% xenon for 20 minutes (Yagi et al.)) is listed as “no adverse events”. The adverse events ([2]; ten healthy adults, xenon 25%, 30% and 35%, each for 5-minute intervals (Sclabassi et al.)) was “no adverse events”.
